Assay results from patent US9056876B2, “Substituted 1H-pyrazolo[3′,4′,4,5]thieno[2,3-b]pyridin-3-amine analogs as positive allosteric modulators of the muscarinic acetylcholine receptor M4” (VANDERBILT UNIVERSITY, priority 2011, dated 2015).

Target: T1, mAChR M4 (UniProt P08173)
T1 construct: hM1 and hM4 cDNAs were purchased from Missouri S&T cDNA Resource
T1 sequence (P08173 1-479): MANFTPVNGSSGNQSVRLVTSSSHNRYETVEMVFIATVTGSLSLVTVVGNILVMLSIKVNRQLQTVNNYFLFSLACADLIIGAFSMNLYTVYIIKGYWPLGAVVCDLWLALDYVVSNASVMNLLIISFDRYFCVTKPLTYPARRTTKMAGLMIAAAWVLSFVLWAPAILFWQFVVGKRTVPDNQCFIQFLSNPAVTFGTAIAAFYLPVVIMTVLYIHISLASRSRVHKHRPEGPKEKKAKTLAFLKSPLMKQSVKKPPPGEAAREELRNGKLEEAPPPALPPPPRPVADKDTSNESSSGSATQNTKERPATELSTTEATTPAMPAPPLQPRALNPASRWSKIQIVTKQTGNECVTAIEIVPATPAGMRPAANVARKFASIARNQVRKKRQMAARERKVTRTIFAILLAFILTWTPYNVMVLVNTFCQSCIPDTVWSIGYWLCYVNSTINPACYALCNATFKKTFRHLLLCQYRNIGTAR
Experiment: mAChR M4 cell-based functional assay (calcium mobilization, Fluo-4, FDSS)
Details: for Emax (%)*: % ACh maximum at 30 μM; for pEC50: positive allosteric modulator activity, EC20 acetylcholine response; for pEC50 / EC50: CHO-K1 cells; for EC50: positive allosteric modulator activity: concentration-dependent increase in the EC20 acetylcholine response, >10 μM estimated for low potency (no plateau)
Description: Chinese hamster ovary (CHO-K1) cells stably expressing rat (r)M1 were purchased from the American Type Culture Collection and cultured according to their indicated protocol. CHO cells stably expressing human (h)M2, hM3, and hM5 were described previously (Levey A I, et al., (1991) J Neurosci 11:3218-3226.); hM1 and hM4 cDNAs were purchased from Missouri S&T cDNA Resource; rM4 cDNA was provided by T. I. Bonner (National Institutes of Health, Bethesda, Md.). rM2 and rM3 were cloned from a rat brain cDNA library and sequence verified. hM1, rM2, rM3, hM4, and rM4 cDNAs were used to stably transfect CHO-K1 cells purchased from the American Type Culture Collection using Lipofectamine-2000. To make stable rM2, hM2, rM3, hM4, and rM4 cell lines for use in calcium mobilization assays, these cells also were stably transfected with a chimeric G-protein (Gqi5) (provided by B. R. Conklin, University of California, San Francisco) using Lipofectamine 2000. rM1, hM1, rM3, hM3, rM5, and hM5 cells were grown in Ham's F-12 medium containing 10% heat-inactivated fetal bovine serum (FBS), 20 mM HEPES, and 50 µg/mL G418 sulfate. rM2-Gqi5, hM2-Gqi5, and hM4-Gqi5 cells were grown in the same medium also containing 500 µg/mL Hygromycin B. Stable rM4-Gqi5 cells were grown in DMEM containing 10% heat-inactivated FBS, 20 mM HEPES, 400 µg/mL G418 sulfate, and 500 µg/mL Hygromycin B.
For high throughput measurement of agonist-evoked increases in intracellular calcium, CHO-K1 cells stably expressing the target muscarinic receptor were plated in growth medium lacking G418 and hygromycin at 15,000 cells/20 μL/well in Greiner 384-well black-walled, tissue culture (TC)-treated, clear-bottom plates (VWR). Cells were incubated overnight at 37° C. and 5% CO2. The next day, cells were washed using an ELX 405 (BioTek) with four washes (80 μL) of assay buffer then aspirated to 20 μL. Next, […] of 16 μM Fluo-4/acetoxymethyl ester (Invitrogen, Carlsbad, Calif.) prepared as a 2.3 mM stock in DMSO and mixed in a 1:1 ratio with 10% (w/v) Pluronic F-127 and diluted in assay buffer was added to the wells and the cell plates were incubated for 50 min at 37° C. and 5% CO2. Dye was removed by washing with the ELX 405 (four 80 μL washes of assay buffer) then aspirated to 20 μL. Compound master plates were formatted in an 11 point CRC format (1:3 dilutions) in 100% DMSO with a starting concentration of 10 mM using the BRAVO liquid handler (Agilent). Test compound CRCs were then transferred to daughter plates (240 nL) using the Echo acoustic plate reformatter (Labcyte, Sunnyvale, Calif.) and then diluted into assay buffer (40 μL) to a 2× stock using a Thermo Fisher Combi (Thermo Fisher Scientific, Waltham, Mass.).
Calcium flux was measured using the Functional Drug Screening System (FDSS) 6000 (Hamamatsu Corporation, Tokyo, Japan) as an increase in the fluorescent static ratio. Compounds were applied to cells (20 μL, 2×) using the automated system of the FDSS 6000 at 4 s into the 300 s protocol and the data were collected at 1 Hz. At 144 s into the 300 s protocol, 10 μL of an EC20 concentration of the muscarinic receptor agonist acetylcholine was added (5×), followed by the addition of 12 μL an EC80 concentration of acetylcholine at the 230 s time point (5×). Agonist activity was analyzed as a concentration-dependent increase in calcium mobilization upon compound addition. Positive allosteric modulator activity was analyzed as a concentration-dependent increase in the EC20 acetylcholine response. Antagonist activity was analyzed as a concentration-dependent decrease in the EC80 acetylcholine response. Concentration-response curves were generated using a four-parameter logistical equation in XLfit curve fitting software (IDBS, Bridgewater, N.J.) for Excel (Microsoft, Redmond, Wash.) or Prism (GraphPad Software, Inc., San Diego, Calif.). […]

Row | SMILES | Emax (%)* [%] | pEC50 | EC50 [nM]
1 | Cc1nc2sc3c(N)nn(C)c3c2c(C)c1Cl [Compound 23, 7-chloro-1,6,8-trimethyl-1H-pyrazolo[3′,4′:4,5]thieno[2,3-b]pyridin-3-amine] | 50 | 6.07 | 850
2 | Cc1nc2sc3c(NCCC(C)C)nn(C)c3c2c(C)c1Cl [Compound 24, 7-chloro-N-isopentyl-1,6,8-trimethyl-1H-pyrazolo[3′,4′:4,5]thieno[2,3-b]pyridin-3-amine] | 61 | <5.00 | > 10000
3 | Cc1nc2sc3c(NCc4ccco4)nn(C)c3c2c(C)c1Cl [Compound 25, 7-chloro-N-(furan-2-ylmethyl)-1,6,8-trimethyl-1H-pyrazolo[3′,4′:4,5]thieno[2,3-b]pyridin-3-amine] | 57 | 6.66 | 220
4 | Cc1nc2sc3c(NCc4cccs4)nn(C)c3c2c(C)c1Cl [Compound 26, 7-chloro-1,6,8-trimethyl-N-(thiophen-2-ylmethyl)-1H-pyrazolo[3′,4′:4,5]thieno[2,3-b]pyridin-3-amine] | 42 | <5.00 | > 10000
5 | Cc1nc2sc3c(NCc4ccc(F)c(F)c4)nn(C)c3c2c(C)c1Cl [Compound 27, 7-chloro-N-(3,4-difluorobenzyl)-1,6,8-trimethyl-1H-pyrazolo[3′,4′:4,5]thieno[2,3-b]pyridin-3-amine] | 46 | <5.00 | > 10000
6 | Cc1ccnc(Nc2nn(C)c3c2sc2nc(C)c(Cl)c(C)c23)n1 [Compound 28, 7-chloro-1,6,8-trimethyl-N-(4-methylpyrimidin-2-yl)-1H-pyrazolo[3′,4′:4,5]thieno[2,3-b]pyridin-3-amine] | 36 | <5.00 | > 10000
7 | Cc1cc(C)c2c(n1)sc1c(N)nn(C)c12 [Compound 29, 1,6,8-trimethyl-1H-pyrazolo[3′,4′:4,5]thieno[2,3-b]pyridin-3-amine] | 49 | <5.00 | > 10000
8 | Cc1cc(C)c2c(n1)sc1c(NCC3CC3)nn(C)c12 [Compound 30, N-(cyclopropylmethyl)-1,6,8-trimethyl-1H-pyrazolo[3′,4′:4,5]thieno[2,3-b]pyridin-3-amine] | 73 | 6.80 | 160
9 | Cc1cc(C)c2c(n1)sc1c(NCCC(C)C)nn(C)c12 [Compound 32, N-isopentyl-1,6,8-trimethyl-1H-pyrazolo[3′,4′:4,5]thieno[2,3-b]pyridin-3-amine] | 81 | 6.72 | 190
10 | Cc1cc(C)c2c(n1)sc1c(NCc3ccccc3)nn(C)c12 [Compound 33, N-benzyl-1,6,8-trimethyl-1H-pyrazolo[3′,4′:4,5]thieno[2,3-b]pyridin-3-amine] | 75 | 6.89 | 130
11 | Cc1cc(C)c2c(n1)sc1c(NCc3cccs3)nn(C)c12 [Compound 34, 1,6,8-trimethyl-N-(thiophen-2-ylmethyl)-1H-pyrazolo[3′,4′:4,5]thieno[2,3-b]pyridin-3-amine] | 81 | 7.07 | 86
12 | Cc1cc(C)c2c(n1)sc1c(NCc3ccco3)n[nH]c12 [Compound 35, N-(furan-2-ylmethyl)-6,8-dimethyl-1H-pyrazolo[3′,4′:4,5]thieno[2,3-b]pyridin-3-amine] | 80 | 5.92 | 1200
13 | Cc1cc(C)c2c(n1)sc1c(NCc3cccs3)n[nH]c12 [Compound 36, 6,8-dimethyl-N-(thiophen-2-ylmethyl)-1H-pyrazolo[3′,4′:4,5]thieno[2,3-b]pyridin-3-amine] | 78 | 6.20 | 630
14 | Cc1cc(C)c2c(n1)sc1c(NCC(C)C)n[nH]c12 [Compound 37, N-isobutyl-6,8-dimethyl-1H-pyrazolo[3′,4′:4,5]thieno[2,3-b]pyridin-3-amine] | 53 | 5.43 | 3700
